Test results: US20240368150A1 (Hoffmann-La Roche Inc., priority 2021, published 2024)
Where two headings read alike, the source gives them in different places.

What was measured:
primary human T-cells [1] = system: primary human T-cells
primary human T-cells [2] = experiment: Proliferation assay after 5 days (CellTiter-Glo, CD3 stimulation; PBS counter screen); format: cell-based; settings: CD3 stimulation; for Emax: read-out: Emax proliferation (% activation); for EC50: primary human T-cells, CellTiter-Glo after 5 days, EC50 of fitted sigmoidal curve, read-out: Tcell Proliferation CD3 EC50
Summary of the method: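 Compounds were added to medium-only plates, and proliferation was read 5 days later as luminescence from CellTiter-Glo 2.0, whose ATP signal is proportional to cell number. Plates and reagent were equilibrated to room temperature for 45 min before an equal volume of reagent was added, with 15 min rocking.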

[3] = Homo sapiens, T-cell, 120 h, 5 days, normalized to reference compound A1 as stimulator control = 100%, DMSO neutral control

SMILES	EC50 (primary human T-cells [1])	Emax (primary human T-cells [2]; [3])	EC50 (primary human T-cells [2]; Homo sapiens, T-cell, 120 h)	Emax proliferation (% activation) (primary human T-cells [2]; 5 days, normalized to reference compound A1 as stimulator control = 100%, DMSO neutral control)	EC50 (primary human T-cells [2])
N[C@H]1CS(=O)(=O)c2cc(F)c(-c3nnc(C4(C(F)F)CNC4)o3)cc2N(Cc2ccc(Cl)cc2)C1=O [Example 112, (3R)-3-amino-5-[(4-chlorophenyl)methyl]-7-[5-[3-(difluoromethyl)azetidin-3-yl]-1,3,4-oxadiazol-2-yl]-8-fluoro-1,1-dioxo-2,3-dihydro-1λ^6,5-benzothiazepin-4-one]	3230 nM	124%	1050 nM		
CN1CC[C@@H](n2nnc(-c3cc4c(cc3F)S(=O)(=O)C[C@H](N)C(=O)N4Cc3ccc(Cl)cc3)n2)C1 [Example 10, (3R)-3-amino-5-[(4-chlorophenyl)methyl]-8-fluoro-1,1-dioxo-7-[2-[(3R)-1-methylpyrrolidin-3-yl]tetrazol-5-yl]-2,3-dihydro-1λ^6,5-benzothiazepin-4-one]	3100 nM	78%	4040 nM		
COC(=O)NC(C(F)(F)F)C(C)(C)c1nnc(-c2cc3c(cc2F)S(=O)(=O)C[C@H](N)C(=O)N3Cc2ccc(Cl)cc2)o1 (stereo partly drawn) [Example 137, methyl N-[2-methyl-2-[5-[(3R)-3-amino-5-[(4-chlorophenyl)methyl]-8-fluoro-1,1,4-trioxo-2,3-dihydro-1λ^6,5-benzothiazepin-7-yl]-1,3,4-oxadiazol-2-yl]-1-(trifluoromethyl)propyl]carbamate]	487 nM	90%	309 nM		
Cc1ccc(-c2nnc(-c3ccc4c(c3)N(Cc3ccc(Cl)cc3)C(=O)[C@@H](N)CS4(=O)=O)o2)cc1 [Example 377, (3R)-3-amino-5-[(4-chlorophenyl)methyl]-1,1-dioxo-7-[5-(p-tolyl)-1,3,4-oxadiazol-2-yl]-2,3-dihydro-1λ^6,5-benzothiazepin-4-one]	1720 nM	38%	319 nM		
Cc1cc2c(cc1-c1nnc(C(C)(C)C#N)o1)N(Cc1ccc(Cl)cc1)C(=O)[C@@H](N)CS2(=O)=O [Example 276, 2-[5-[(3R)-3-amino-5-[(4-chlorophenyl)methyl]-8-methyl-1,1,4-trioxo-2,3-dihydro-1λ^6,5-benzothiazepin-7-yl]-1,3,4-oxadiazol-2-yl]-2-methyl-propanenitrile]	1060 nM	96%	2730 nM		
N[C@H]1CS(=O)(=O)c2cc(F)c(-c3nnc(N4CC5(C4)CC(F)(F)C5)o3)cc2N(Cc2ccc(Cl)cc2)C1=O [Example 479, (3R)-3-amino-5-[(4-chlorophenyl)methyl]-7-[5-(6,6-difluoro-2-azaspiro[3.3]heptan-2-yl)-1,3,4-oxadiazol-2-yl]-8-fluoro-1,1-dioxo-2,3-dihydro-1λ^6,5-benzothiazepin-4-one]	110 nM	127%	439 nM		
COC(=O)N1CC2CC2(c2nnc(-c3cc4c(cc3F)S(=O)(=O)C[C@H](N)C(=O)N4Cc3ccc(Cl)cc3)o2)C1 (stereo partly drawn) [Example 183, methyl 1-[5-[(3R)-3-amino-5-[(4-chlorophenyl)methyl]-8-fluoro-1,1,4-trioxo-2,3-dihydro-1λ^6,5-benzothiazepin-7-yl]-1,3,4-oxadiazol-2-yl]-3-azabicyclo[3.1.0]hexane-3-carboxylate]	43 nM	131%	336 nM		
Cn1nnc(-c2cc3c(cc2F)S(=O)(=O)C[C@H](N)C(=O)N3Cc2ccc(Cl)cc2)n1 [Example 16, (3R)-3-amino-5-[(4-chlorophenyl)methyl]-8-fluoro-7-(2-methyltetrazol-5-yl)-1,1-dioxo-2,3-dihydro-1λ^6,5-benzothiazepin-4-one]	2830 nM	65%	3660 nM		
CN1CC(c2nc(-c3cc4c(cc3F)S(=O)(=O)C[C@H](N)C(=O)N4Cc3ccc(Cl)cc3)no2)CC(C)(C)C1 (stereo partly drawn) [Example 324, (3R)-3-amino-5-[(4-chlorophenyl)methyl]-8-fluoro-1,1-dioxo-7-[5-(1,5,5-trimethyl-3-piperidyl)-1,2,4-oxadiazol-3-yl]-2,3-dihydro-1λ^6,5-benzothiazepin-4-one]	4370 nM	107%	341 nM		
CS(=O)(=O)N1CC2CC(c3nnc(-c4cc5c(cc4F)S(=O)(=O)C[C@H](N)C(=O)N5Cc4ccc(Cl)cc4)o3)(C2)C1 [Example 174, (3R)-3-amino-5-[(4-chlorophenyl)methyl]-8-fluoro-7-[5-(3-methylsulfonyl-3-azabicyclo[3.1.1]heptan-1-yl)-1,3,4-oxadiazol-2-yl]-1,1-dioxo-2,3-dihydro-1λ^6,5-benzothiazepin-4-one]	2190 nM	93%	4460 nM		
CC(C)(C)NC(=O)c1nc(-c2cc3c(cc2F)S(=O)(=O)C[C@H](N)C(=O)N3Cc2ccc(OC(F)(F)F)cc2)no1 [Example 330, 3-[(3R)-3-amino-8-fluoro-1,1,4-trioxo-5-[[4-(trifluoromethoxy)phenyl]methyl]-2,3-dihydro-1λ^6,5-benzothiazepin-7-yl]-N-tert-butyl-1,2,4-oxadiazole-5-carboxamide]	1830 nM	132%	291 nM		
N[C@H]1CS(=O)(=O)c2ccc(-c3nnc(-c4ccccc4)o3)cc2N(Cc2ccc(Cl)cc2)C1=O [Example 374, (3R)-3-amino-5-[(4-chlorophenyl)methyl]-1,1-dioxo-7-(5-phenyl-1,3,4-oxadiazol-2-yl)-2,3-dihydro-1λ^6,5-benzothiazepin-4-one]	15100 nM	52%	> 10000 nM		
CN[C@@H](C)C(=O)N[C@H]1CS(=O)(=O)c2cc(F)c(-c3nnc(C(C)(C)C)o3)cc2N(Cc2ccc(Cl)cc2)C1=O [Example 268, (2S)—N-[(3R)-7-(5-tert-butyl-1,3,4-oxadiazol-2-yl)-5-[(4-chlorophenyl)methyl]-8-fluoro-1,1,4-trioxo-2,3-dihydro-1λ^6,5-benzothiazepin-3-yl]-2-(methylamino)propanamide]	7820 nM	95%	249 nM		
NC1CC2(C1)CC(c1nnc(-c3cc4c(cc3F)S(=O)(=O)C[C@H](N)C(=O)N4Cc3ccc(Cl)cc3)o1)C2 (stereo partly drawn) [Example 116, (3R)-3-amino-7-[5-(2-aminospiro[3.3]heptan-6-yl)-1,3,4-oxadiazol-2-yl]-5-[(4-chlorophenyl)methyl]-8-fluoro-1,1-dioxo-2,3-dihydro-1λ^6,5-benzothiazepin-4-one]	7340 nM	84%	4640 nM		
COC(F)(c1nnc(-c2ccc3c(c2)N(Cc2ccc(OC(F)(F)F)cc2)C(=O)[C@@H](N)CS3(=O)=O)o1)C(F)(F)F (stereo partly drawn) [Example 424, (3R)-3-amino-1,1-dioxo-7-[5-(1,2,2,2-tetrafluoro-1-methoxy-ethyl)-1,3,4-oxadiazol-2-yl]-5-[[14-(trifluoromethoxy)phenyl]methyl]-2,3-dihydro-1λ^6,5-benzothiazepin-4-one]	69.4 nM	88%	72.3 nM		
C[C@@H]1[C@H](N)C(=O)N(Cc2ccc(Cl)cc2)c2cc(-c3nnc(C(C)(C)C)o3)c(F)cc2S1(=O)=O [Example 190, (2R,3R)-3-amino-7-(5-tert-butyl-1,3,4-oxadiazol-2-yl)-5-[(4-chlorophenyl)methyl]-8-fluoro-2-methyl-1,1-dioxo-2,3-dihydro-1λ^6,5-benzothiazepin-4-one]	1640 nM	114%	1160 nM		
COC(=O)N1CC2CC(c3nc(-c4cc5c(cc4F)[S+]([O-])C[C@H](N)C(=O)N5Cc4ccc(OC(F)(F)F)cc4)no3)(C2)C1 (stereo partly drawn) [Example 336, methyl 1-[3-[(3R)-3-amino-8-fluoro-1,4-dioxo-5-[[4-(trifluoromethoxy)phenyl]methyl]-2,3-dihydro-1λ^4,5-benzothiazepin-7-yl]-1,2,4-oxadiazol-5-yl]-3-azabicyclo[3.1.1]heptane-3-carboxylate]	7020 nM			114 % activation	1100 nM
CC(C)(C)c1nnc(-c2cc3c(cc2F)S(=O)(=O)C[C@H](N)C(=O)N3Cc2ccc(OCCO)cc2)o1 [Example 234, (3R)-3-amino-7-(5-tert-butyl-1,3,4-oxadiazol-2-yl)-8-fluoro-5-[[4-(2-hydroxyethoxy)phenyl]methyl]-1,1-dioxo-2,3-dihydro-1λ^6,5-benzothiazepin-4-one]	5340 nM	130%	1200 nM		
CC(C)(O)c1nnc(-c2cc3c(cc2F)S(=O)(=O)C[C@H](N)C(=O)N3Cc2ccc(Cl)cc2)o1 [Example 119, (3R)-3-amino-5-[(4-chlorophenyl)methyl]-8-fluoro-7-[5-(1-hydroxy-1-methyl-ethyl)-1,3,4-oxadiazol-2-yl]-1,1-dioxo-2,3-dihydro-1λ^6,5-benzothiazepin-4-one]	1210 nM	97%	730 nM		
CC(C)(C)c1nnc(-c2cc3c(cc2F)S(=O)(=O)C[C@H](N)C(=O)N3Cc2cnc(C3CC3)nc2)o1 [Example 238, (3R)-3-amino-7-(5-tert-butyl-1,3,4-oxadiazol-2-yl)-5-[(2-cyclopropylpyrimidin-5-yl)methyl]-8-fluoro-1,1-dioxo-2,3-dihydro-1λ^6,5-benzothiazepin-4-one]	769 nM	102%	3070 nM		
CC(C)(C)c1nnc(-c2cc3c(cc2F)S(=O)(=O)C[C@H](N)C(=O)N3Cc2cncc(Cc3ccc(Cl)cc3)c2)o1 [Example 252, (3R)-3-amino-7-(5-tert-butyl-1,3,4-oxadiazol-2-yl)-5-[[5-[(4-chlorophenyl)methyl]-3-pyridyl]methyl]-8-fluoro-1,1-dioxo-2,3-dihydro-1λ^6,5-benzothiazepin-4-one]	1160 nM	72%	4820 nM		
